# Experimental data published in US20170235917A1, “SYSTEMS AND METHODS FOR MONITORING AND CONTROLLING A CARD[…] OF A SUBJECT” (THE GENERAL HOSPITAL CORPORATION, priority 2014, published 2017).
# Where two headings read alike, the source gives them in different places.
# Columns and labels:
# [1] = for 1/τ (inverse time constant of drug distribution and equilibration) / tD (delay): mean ± SD, five piglets
# Protocol: Five neonatal Yorkshire Duroc piglets of 10+/−3 d of age weighting 2.4+/−0.6 kg were pre-anesthetized with ketamine (33 mg/kg) and atropine (0.05 mg/kg), intubated, and anesthetized using 1.5-3.0% isoflurane while mechanically ventilated. Core body temperature was kept at 38+/−0.5° C. BP, HR, arterial O2 saturation, end-tidal CO2, fraction of inspired O2, and pulmonary compliance were continuously monitored. HR beyond 250 bpm was captured using the PC-Vet wireless ECG system or direct counting. The animals received intravenous heparin (200 units/kg/h), physiologic saline (10 mL/kg/h), and 10 g/dL of dextrose-water to adjust serum glucose levels using Genie Plus syringe pumps validated for stability of infusion rate. Serum electrolytes, base excess (−6 to +6), pH (7.20-7.45), partial arterial O2 pressure (80-120 mmHg) and partial arterial CO2 pressure (35-45 mmHg), and arterial O2 saturation (90-100%) were maintained in the target ranges using sodium bicarbonate, potassium chloride, lactated Ringer's solution, and ventilatory changes, respectively. Both femoral veins and left femoral artery were cannulated for fluid and drug administration, and arterial BP measurements and blood sampling, respectively. […] The baseline measurements were recorded after a 15-min postsurgical stabilization period, followed by the escalation of dose, and a 15-min washout period after the discontinuation of the medication. […] To deduce the rate of change of the hemodynamic parameters, the data obtained were subdivided into baseline, low dose (0.25 mcg/kg/min), medium dose (0.5 and 0.75 mcg/kg/min) and high dose (1, 1.5 and 2 mcg/kg/min). BP and HR were collected in real time at a sampling rate of 0.2 Hz.
# [2] = range across four pooled subject groups, cited from earlier work
smiles,measurement,setting,value
CNC[C@H](O)c1ccc(O)c(O)c1 [epinephrine],1/τ (inverse time constant of drug distribution and equilibration),[1]; X = H (HR),4.1e−3 ± 4.5e−3
same,tD (delay),[1]; X = R (TPR),48.6 ± 17.6 s
same,1/τ (inverse time constant of drug distribution and equilibration),[1]; X = δV (SV),0.01 ± 0.02
same,tD (delay),[1]; X = δV (SV),29.1 ± 26.1 s
same,HR increase as share of its maximum response,"[1]; after the first dose escalation (0.25 mcg/kg/min), averaged over five piglets",55%
same,HR at which the response starts to saturate,"[1]; doses of 1-2 mcg/kg/min, one particular piglet",around 400 bpm
same,MAP response,"[1]; from the low-dose range, averaged over five piglets (FIG. 10)",persistently increases
same,DBP,[2]; epinephrine 020 ng/kg/min,69-88 mmHg
same,HR,[2]; epinephrine 020 ng/kg/min,64-69 bpm
same,MAP,[2]; epinephrine 020 ng/kg/min,83-110 mmHg
same,SBP,[2]; epinephrine 020 ng/kg/min,112-153 mmHg
same,SVI,[2]; epinephrine 020 ng/kg/min,54-65 ml/m^2
same,DBP,[2]; epinephrine 040 ng/kg/min,66-83 mmHg
same,HR,[2]; epinephrine 040 ng/kg/min,68-73 bpm
same,MAP,[2]; epinephrine 040 ng/kg/min,82-106 mmHg
same,SBP,[2]; epinephrine 040 ng/kg/min,114-153 mmHg
same,SVI,[2]; epinephrine 040 ng/kg/min,55-68 ml/m^2
same,DBP,[2]; epinephrine 080 ng/kg/min,62-79 mmHg
same,HR,[2]; epinephrine 080 ng/kg/min,71-76 bpm
same,MAP,[2]; epinephrine 080 ng/kg/min,83-105 mmHg
same,SBP,[2]; epinephrine 080 ng/kg/min,124-158 mmHg
same,SVI,[2]; epinephrine 080 ng/kg/min,58-71 ml/m^2
same,DBP,[2]; epinephrine 120 ng/kg/min,61-79 mmHg
same,HR,[2]; epinephrine 120 ng/kg/min,72-81 bpm
same,MAP,[2]; epinephrine 120 ng/kg/min,84-109 mmHg
same,SBP,[2]; epinephrine 120 ng/kg/min,132-168 mmHg
same,SVI,[2]; epinephrine 120 ng/kg/min,59-74 ml/m^2
same,DBP,[2]; epinephrine 160 ng/kg/min,61-80 mmHg
same,HR,[2]; epinephrine 160 ng/kg/min,75-79 bpm
same,MAP,[2]; epinephrine 160 ng/kg/min,86-109 mmHg
same,SBP,[2]; epinephrine 160 ng/kg/min,136-170 mmHg
same,SVI,[2]; epinephrine 160 ng/kg/min,59-77 ml/m^2
